# Reference: paper PMC9819389, “Antiandrogenic and Estrogenic Activity Evaluation of Oxygenated and Nitrated Polycyclic Aromatic Hydrocarbons Using Chemically Activated Luciferase Expression Assays” (International Journal of Environmental Research and Public …, 2022)
# “Also recorded” adds a separate entry of the source. Where two headings read alike, the source gives them in different places. Marks after values point to notes of the source that are not given here.
# How the values were obtained:
# AR [1] = settings: previous study, cited from earlier work
# human AR = biological target: T1, human AR (Homo sapiens, UniProt P10275); assay: AR-CALUX assay, antiandrogenic (AR antagonistic) activity, U2OS-luc cells; type: cell-based; set-up: host or cells: human U2OS-luc (osteoblastic osteosarcoma) cells; settings: for REPmol (IC25): molar relative potency to flutamide, IC25-based
# T1 sequence (P10275 1-920): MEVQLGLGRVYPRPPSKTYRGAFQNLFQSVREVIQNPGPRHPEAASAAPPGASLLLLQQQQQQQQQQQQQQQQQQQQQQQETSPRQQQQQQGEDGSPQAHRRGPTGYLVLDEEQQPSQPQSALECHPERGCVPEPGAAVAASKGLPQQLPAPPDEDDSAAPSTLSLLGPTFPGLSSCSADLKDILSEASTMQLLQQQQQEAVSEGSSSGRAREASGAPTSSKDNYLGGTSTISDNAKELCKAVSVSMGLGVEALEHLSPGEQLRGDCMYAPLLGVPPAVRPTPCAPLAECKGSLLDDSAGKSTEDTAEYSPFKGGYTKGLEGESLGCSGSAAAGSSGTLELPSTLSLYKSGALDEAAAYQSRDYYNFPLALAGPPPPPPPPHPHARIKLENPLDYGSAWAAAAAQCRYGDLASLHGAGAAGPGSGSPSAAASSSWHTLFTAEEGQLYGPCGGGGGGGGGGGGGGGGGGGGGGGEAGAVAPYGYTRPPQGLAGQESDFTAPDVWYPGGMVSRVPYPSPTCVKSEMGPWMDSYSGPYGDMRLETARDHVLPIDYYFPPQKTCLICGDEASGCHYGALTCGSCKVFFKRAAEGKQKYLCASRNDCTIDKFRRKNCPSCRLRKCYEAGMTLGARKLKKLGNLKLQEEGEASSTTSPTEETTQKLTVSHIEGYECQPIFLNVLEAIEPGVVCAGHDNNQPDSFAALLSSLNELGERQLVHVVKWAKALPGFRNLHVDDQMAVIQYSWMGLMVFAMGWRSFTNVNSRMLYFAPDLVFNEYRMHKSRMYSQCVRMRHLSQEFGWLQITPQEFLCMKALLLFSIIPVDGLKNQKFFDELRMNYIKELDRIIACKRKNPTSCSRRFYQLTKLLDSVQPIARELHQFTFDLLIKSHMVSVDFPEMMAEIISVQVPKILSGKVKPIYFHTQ
# Description: The AR- and ER-CALUX assays for the polycyclic aromatic compounds were evaluated according to previously described methods, which used human U2OS-luc cells developed by BioDetection Systems b.v. (Amsterdam, The Netherlands). The cells are transfected stably with human AR and ER, respectively, and a luciferase reporter gene under their respective steroid receptor response elements. […] They were incubated at 37 °C in a humidified atmosphere containing 5% carbon dioxide. […] The medium was then removed, and the cells were lysed. A solution of luciferin was then added, and the luminescence intensity was measured with an ARVO™ X3 luminometer from PerkinElmer (Waltham, MA, USA). A sigmoid dose–response curve for a chemical was fitted to the Hill equation given by Equation (1) using SigmaPlot 11.0 from Systat Software Inc. (San Jose, CA, USA). y = min + (max − min)/(1 + (a1/x)^a^2)(1) where, y and x are the measured luciferase induction level and compound concentration, respectively. […] The REP values in mol base were obtained by dividing the ICs or ECs of the standard by the ICs or ECs of target compound, respectively.
# All measurements were conducted in triplicate wells. They were repeated twice and trice in the AR- and ER-CALUX assays, respectively, for each concentration in dose–response curve. […] Cell viability was confirmed using 3-(4,5-dimethylthiazol-2-yl)-2,5-diphenyltetrazolium bromide (MTT) assay. If the cell viability was <80% in the positive control, the corresponding exposure dose was considered cytotoxic and excluded from the calculation.
# ER [2] = test system: ER; set-up: method as in Pieterse et al. [30]; settings: previous study; relative to E2; ref Pieterse et al. [30]; cited from earlier work
# human ER = biological target: T2, human ER (Homo sapiens, UniProt P03372); assay: ER-CALUX assay, estrogenic activity, U2OS-luc cells; type: cell-based; set-up: host or cells: human U2OS-luc (osteoblastic osteosarcoma) cells; settings: for EC50 / REPmol (EC50): present study; for EC50: 24 h exposure; for REPmol (EC50): molar relative potency to E2, EC50-based
# T2 sequence (P03372 1-595): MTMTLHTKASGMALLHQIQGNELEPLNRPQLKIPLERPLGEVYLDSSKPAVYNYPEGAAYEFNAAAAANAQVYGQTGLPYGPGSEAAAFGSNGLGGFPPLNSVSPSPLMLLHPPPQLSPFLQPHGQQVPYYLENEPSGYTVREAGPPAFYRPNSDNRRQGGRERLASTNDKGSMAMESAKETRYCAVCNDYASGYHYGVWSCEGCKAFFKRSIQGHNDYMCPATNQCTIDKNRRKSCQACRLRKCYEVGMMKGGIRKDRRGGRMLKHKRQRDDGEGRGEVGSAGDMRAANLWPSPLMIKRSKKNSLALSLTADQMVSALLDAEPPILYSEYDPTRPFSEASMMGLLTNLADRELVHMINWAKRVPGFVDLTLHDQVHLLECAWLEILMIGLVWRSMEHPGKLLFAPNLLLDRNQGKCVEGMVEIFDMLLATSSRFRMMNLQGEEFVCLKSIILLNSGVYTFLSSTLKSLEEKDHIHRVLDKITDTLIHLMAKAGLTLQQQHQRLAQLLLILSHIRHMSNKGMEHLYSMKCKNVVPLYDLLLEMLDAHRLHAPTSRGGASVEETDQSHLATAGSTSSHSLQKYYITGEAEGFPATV
# AR [3] = test system: AR; set-up: method as in Okamura et al. [22]; key: +, positive; settings: cited from earlier work
# ER [4] = settings: cited from earlier work
# ER [5] = test system: ER; set-up: method as in Boonen et al. [33]; settings: previous study; relative to E2; ref Boonen et al. [33]; cited from earlier work
# [6] = relative to flutamide, ref Pieterse et al. [30]
# [7] = present study, 24 h exposure with 100 pM DHT (EC50 level)
# [8] = previous study, ref Okamura et al. [22]
# [9] = relative to flutamide, ref Alvarez-Muñoz et al. [28]
molecule,measurement,setting,value
"CC(C)C(=O)Nc1ccc([N+](=O)[O-])c(C(F)(F)F)c1 [Flutamide, reference compound]","REPmol, U2OS","AR [1]; the standard itself, no reference given",1
"c1ccc2c(c1)cc1ccc3c4ccccc4cc4ccc2c1c43 [DB[a,h]P, dibenzo[a,h]pyrene]",antiandrogenic activity (in words),human AR; present study,not observed; also recorded: inactive
same,"REPmol, U2OS",ER [2],2 × 10^−5
same,"REPmol, U2OS",AR [1]; [6],<0.003 ^e
"O=C1c2cccc3ccc4ccc5cccc1c5c4c23 [BPO, 6H-benzo[cd]pyren-6-one]",antiandrogenic activity (in words),human AR; present study,not observed
same,EC50,human ER,U (key: U: < 10% response of 1 nM E2; nd: not detected)
same,REPmol (EC50),human ER,U (key: U: < 10% response of 1 nM E2; nd: not detected)
cyclopenta[cd]pyrene [CPP],IC25,human AR; [7],580 nM
same,IC50,"human AR; present study, 24 h exposure with 100 pM DHT (EC50 level), read-out: IC50",1300 nM
same,REPmol (IC25),human AR; present study,0.14
"c1ccc2c(c1)c1cccc3ccc4cccc2c4c31 [B[e]P, benzo[e]pyrene]",inhibition at 10 µM,"human AR; at 10 μM, maximum soluble concentration, read-out: inhibition of AR activation",> 15%
same,antiandrogenic activity (in words),human AR; present study,partial antagonist
same,EC50,human ER,U (key: U: < 10% response of 1 nM E2; nd: not detected)
same,REPmol (EC50),human ER,U (key: U: < 10% response of 1 nM E2; nd: not detected)
same,"antiandrogenic activity, PC3",AR [3]; [8],+
"c1ccc2c(c1)cc1ccc3cc4ccccc4c4ccc2c1c34 [DB[a,i]P, dibenzo[a,i]pyrene]",antiandrogenic activity (in words),human AR; present study,not observed; also recorded: inactive
same,activation (level of the response to 1 nM E2),human ER; at 3 μM,14% activation at 3 μM
"c1ccc2c(c1)-c1ccc3ccc4cccc5cc-2c1c3c45 [IdP, indeno[1,2,3-cd]pyrene]","antiandrogenic activity, PC3",AR [3]; [8],+
same,"REPmol, U2OS",AR [1]; [9],0.35 ^f
"O=C1C=Cc2ccccc2C1=O [NphQ, 1,2-naphthoquinone]",antiandrogenic activity (in words),human AR; present study,not observed
"O=C1C=Cc2cccc3cccc1c23 [PhO, Phenalenone]",IC25,human AR; [7],840 nM
same,REPmol (IC25),human AR; present study,0.12
same,IC50,human AR; read-out: IC50,2000 nM
same,EC50,human ER,U ^j (< 10% response of 1 nM E2)
same,REPmol (EC50),human ER,U (< 10% response of 1 nM E2)
"c1ccc2c(c1)ccc1c3ccccc3ccc21 [Chr, Chrysene]","antiandrogenic activity, PC3",AR [3],+
same,"REPmol, T47D",ER [4],U (key: U: < 10% response of 1 nM E2; nd: not detected)
"c1ccc2c3c(ccc2c1)-c1cccc2cccc-3c12 [B[j]FA, benzo[j]fluoranthene]",IC25,human AR; [7],130 nM
same,REPmol (IC25),human AR; present study,0.84
same,IC50,human AR; read-out: IC50,290 nM
same,activation (level of the response to 1 nM E2),human ER; at 3 μM,13% activation at 3 μM
same,"antiandrogenic activity, PC3",AR [3]; [8],+
"O=[N+]([O-])c1ccc2ccc3ccc([N+](=O)[O-])c4ccc1c2c34 [1,8-DNPy, 1,8-dinitropyrene]",REPmol (IC25),human AR; present study,0.91
same,REPmol (EC50),human ER,U (< 10% response of 1 nM E2)
"c1ccc2c(c1)-c1cccc3c1c-2cc1ccccc13 [B[b]FA, benzo[b]fluoranthene]","antiandrogenic activity, PC3",AR [3]; [8],+
"c1ccc2c(c1)-c1cccc3cccc-2c13 [FA, fluoranthene]","REPmol, VM7",ER [5],4.1 × 10^−7
same,"REPmol, U2OS",AR [1]; [9],0.96 ^f
"c1ccc2c(c1)ccc1ccccc12 [Phe, phenanthrene]","REPmol, U2OS",ER [2],<3 × 10^−9
same,"REPmol, VM7",ER [5],1.2 × 10^−6
same,"REPmol, U2OS",AR [1]; [6],0.1 ^e
"c1ccc2c(c1)ccc1ccc3ccccc3c12 [B[c]Phe, Benzo[c]phenanthrene]",IC25,human AR; [7],110 nM
same,REPmol (IC25),human AR; present study,1.0
same,IC50,human AR; read-out: IC50,370 nM
same,activation (level of the response to 1 nM E2),human ER; at 8 μM,27% activation at 8 μM
"O=C1c2ccccc2-c2cccc3cccc1c23 [BAO, 7H-benz[de]anthracen-7-one]",EC50,human ER; read-out: EC50,16000 nM
same,"REPmol, U2OS","AR [1]; relative to flutamide, ref Weiss et al. [34]",0.014 ^c
"c1ccc2c(c1)cc1ccc3cccc4c5ccccc5c2c1c34 [DB[a,l]P, dibenzo[a,l]pyrene]",IC25,human AR; [7],3600 nM
same,REPmol (IC25),human AR; present study,0.037
same,IC50,human AR; read-out: IC50,8900 nM
same,EC50,human ER,U (key: U: < 10% response of 1 nM E2; nd: not detected)
same,REPmol (EC50),human ER,U (key: U: < 10% response of 1 nM E2; nd: not detected)
"c1ccc2cc3c(cc2c1)-c1cccc2cccc-3c12 [B[k]FA, benzo[k]fluoranthene]","antiandrogenic activity, PC3",AR [3]; [8],+
same,"REPmol, U2OS",AR [1]; [9],2.6 ^f
"O=C1c2ccccc2-c2cc3ccccc3cc21 [B[b]FO, 11H-benzo[b]fluoren-11-one]",IC25,human AR; [7],150 nM
same,REPmol (IC25),human AR; present study,0.81
same,IC50,human AR; read-out: IC50,530 nM
same,EC50,human ER; read-out: EC50,4800 nM
"O=[N+]([O-])c1cc2c3ccccc3ccc2c2ccccc12 [6-NChr, 6-nitrochrysene]",IC25,human AR; [7],39 nM
same,REPmol (IC25),human AR; present study,3.2
same,IC50,human AR; read-out: IC50,88 nM
"O=[N+]([O-])c1cc([N+](=O)[O-])c2ccc3cccc4ccc1c2c43 [1,3-DNPy, 1,3-dinitropyrene]",IC50,human AR,210 nM
same,inhibition of AR-mediated luciferase activity,"human AR; coexposure to DHT at 10 nM (100 × EC50), compound at 3 μM",33%
same,mode of AR inhibition,human AR; from coexposure to 10 nM DHT,noncompetitive
same,IC25,human AR; [7],130 nM
same,REPmol (IC25),human AR; present study,0.88
same,EC50,human ER,U (< 10% response of 1 nM E2)
same,REPmol (EC50),human ER,U (< 10% response of 1 nM E2)
"O=C1c2ccccc2-c2ccc3ccccc3c21 [B[a]FO, 11H-Benzo[a]fluoren-11-one]",IC25,human AR; [7],300 nM
same,REPmol (IC25),human AR; present study,0.43
same,IC50,human AR; read-out: IC50,670 nM
same,EC50,human ER; read-out: EC50,4800 nM
"c1ccc2cc3ccccc3cc2c1 [Ant, abthracene]","REPmol, VM7",ER [5],8.3 × 10^−7
same,"REPmol, U2OS","AR [1]; relative to flutamide, ref Marin-Kuan et al. [29]",0.2 ^d
"c1cc2ccc3ccc4ccc5cccc6c(c1)c2c3c4c56 [BPe, Benzo[ghi]perylene]","antiandrogenic activity, PC3",AR [3],+
"O=[N+]([O-])c1ccc2c(c1)-c1cccc3cccc-2c13 [8-NFA, 8-Nitrofluoranthene]",IC25,human AR; [7],98 nM
same,REPmol (IC25),human AR; present study,1.3
same,IC50,human AR; read-out: IC50,270 nM
"O=C1c2ccccc2C(=O)c2cc3ccccc3cc21 [NCQ, 5,12-naphthacenequinone]",antiandrogenic activity (in words),human AR; present study,not observed
same,EC50,human ER,U (< 10% response of 1 nM E2)
same,REPmol (EC50),human ER,U (< 10% response of 1 nM E2)
